Laboratory results reported in ChEMBL document CHEMBL3351379, “Dihydropyrrolo[2,3-d]pyrimidines: Selective Toll-Like Receptor 9 Antagonists from Scaffold Morphing Efforts” (ACS Med Chem Lett, 2014).
pIC50: −log10 of the molar value. Converted amounts (≈) assume the structure as drawn.

Experiments:
[1] = molecular target: T1, Toll-like receptor 9 (Homo sapiens, UniProt Q9NR96); experiment: Antagonist activity at human TLR9 transfected in HEK293 cells after 6 hrs by NF-kappaB luciferase reporter assay; assay type: cell-based
T1 sequence (Q9NR96 whole entry): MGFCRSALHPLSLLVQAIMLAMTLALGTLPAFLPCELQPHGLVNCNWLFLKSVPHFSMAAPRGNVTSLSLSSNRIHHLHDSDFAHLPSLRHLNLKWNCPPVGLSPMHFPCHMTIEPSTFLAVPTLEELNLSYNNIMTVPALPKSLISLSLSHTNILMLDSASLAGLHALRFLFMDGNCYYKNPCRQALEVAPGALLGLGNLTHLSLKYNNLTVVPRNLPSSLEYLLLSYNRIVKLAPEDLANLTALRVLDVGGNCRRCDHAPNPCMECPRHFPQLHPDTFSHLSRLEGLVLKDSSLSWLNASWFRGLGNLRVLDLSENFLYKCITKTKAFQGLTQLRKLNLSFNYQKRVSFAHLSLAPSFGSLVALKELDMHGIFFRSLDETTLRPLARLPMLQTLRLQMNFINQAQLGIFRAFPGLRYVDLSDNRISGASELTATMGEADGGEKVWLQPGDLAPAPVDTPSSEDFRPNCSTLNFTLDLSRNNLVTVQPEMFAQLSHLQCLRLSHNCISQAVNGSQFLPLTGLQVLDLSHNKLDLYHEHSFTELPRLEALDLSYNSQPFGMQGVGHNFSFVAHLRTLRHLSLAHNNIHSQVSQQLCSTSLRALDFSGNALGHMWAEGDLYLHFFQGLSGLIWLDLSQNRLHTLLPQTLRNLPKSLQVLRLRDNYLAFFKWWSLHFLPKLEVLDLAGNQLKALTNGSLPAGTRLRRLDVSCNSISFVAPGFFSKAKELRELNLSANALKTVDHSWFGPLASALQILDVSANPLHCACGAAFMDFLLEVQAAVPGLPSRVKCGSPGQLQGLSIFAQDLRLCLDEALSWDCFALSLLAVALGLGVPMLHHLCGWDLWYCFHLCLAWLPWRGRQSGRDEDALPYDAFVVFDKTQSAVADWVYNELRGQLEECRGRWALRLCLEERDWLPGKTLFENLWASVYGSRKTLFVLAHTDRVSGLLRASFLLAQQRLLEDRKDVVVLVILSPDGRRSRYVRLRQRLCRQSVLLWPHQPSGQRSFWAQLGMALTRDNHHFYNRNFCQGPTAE

[2] = species on record: Homo sapiens; experiment: Metabolic stability in human assessed per mg protein; assay type: ADME
[3] = test system: Mus musculus; experiment: Inhibition of IL-6 production in iv dosed C57BL/6 mouse peritoneal lavage fluid compound administered 1 hr prior to CpG1826 treatment measured after 2 hrs by ELISA; assay type: functional, organism-based
[4] = test system: HEK293; experiment: Selectivity ratio of IC50 for human TLR7 transfected in HEK293 cells to IC50 for human TLR9 transfected in HEK293 cells; assay type: cell-based
[5] = molecular target: T2, Toll-like receptor 8 (Homo sapiens, UniProt Q9NR97); experiment: Antagonist activity at human TLR8 transfected in HEK293 cells after 6 hrs by NF-kappaB luciferase reporter assay; assay type: cell-based
T2 sequence (Q9NR97 whole entry): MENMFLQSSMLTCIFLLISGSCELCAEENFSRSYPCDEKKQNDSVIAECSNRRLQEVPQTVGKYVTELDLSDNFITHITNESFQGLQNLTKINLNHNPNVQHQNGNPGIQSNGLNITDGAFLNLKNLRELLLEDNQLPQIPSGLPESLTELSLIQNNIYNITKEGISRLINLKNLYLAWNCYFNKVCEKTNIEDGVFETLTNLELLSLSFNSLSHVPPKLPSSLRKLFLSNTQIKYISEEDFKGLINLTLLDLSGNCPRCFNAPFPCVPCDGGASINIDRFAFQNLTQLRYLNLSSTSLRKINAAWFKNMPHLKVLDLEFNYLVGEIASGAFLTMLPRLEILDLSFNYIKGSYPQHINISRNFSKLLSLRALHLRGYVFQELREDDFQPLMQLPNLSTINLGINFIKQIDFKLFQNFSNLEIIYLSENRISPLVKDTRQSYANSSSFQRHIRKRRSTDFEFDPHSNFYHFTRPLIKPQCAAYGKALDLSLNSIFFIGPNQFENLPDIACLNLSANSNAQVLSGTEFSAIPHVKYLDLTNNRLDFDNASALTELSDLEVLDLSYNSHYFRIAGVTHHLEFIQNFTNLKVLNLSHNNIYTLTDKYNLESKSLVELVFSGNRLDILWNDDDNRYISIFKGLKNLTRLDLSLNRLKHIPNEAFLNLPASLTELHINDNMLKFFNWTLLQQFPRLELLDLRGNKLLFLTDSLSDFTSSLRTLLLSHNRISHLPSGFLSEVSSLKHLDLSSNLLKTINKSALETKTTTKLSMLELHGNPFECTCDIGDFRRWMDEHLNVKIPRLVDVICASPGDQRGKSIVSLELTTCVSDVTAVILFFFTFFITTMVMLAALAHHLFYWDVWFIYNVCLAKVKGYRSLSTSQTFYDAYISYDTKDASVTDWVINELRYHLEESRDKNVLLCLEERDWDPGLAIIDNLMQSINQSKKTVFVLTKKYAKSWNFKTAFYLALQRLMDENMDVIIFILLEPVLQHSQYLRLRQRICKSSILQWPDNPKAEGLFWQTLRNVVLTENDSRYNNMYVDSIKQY

[6] = test system: PBMC; experiment: Inhibition of CpG-induced IL-6 production in human PBMC after 24 hrs by ELISA; assay type: functional, cell-based
[7] = test system: Mus musculus; experiment: Inhibition of IL-6 production in iv dosed C57BL/6 mouse plasma compound administered 1 hr prior to CpG1826 treatment measured after 2 hrs by ELISA; assay type: functional; conditions: C57BL/6, Plasma
[8] = Aqueous solubility of the compound at pH 7.4; assay type: physicochemical
[9] = molecular target: T3, Toll-like receptor 7 (Homo sapiens, UniProt Q9NYK1); experiment: Antagonist activity at human TLR7 transfected in HEK293 cells assessed as hydrolysis of pNPP after 24 hrs by SEAP reporter assay; assay type: cell-based
T3 sequence (Q9NYK1 whole entry): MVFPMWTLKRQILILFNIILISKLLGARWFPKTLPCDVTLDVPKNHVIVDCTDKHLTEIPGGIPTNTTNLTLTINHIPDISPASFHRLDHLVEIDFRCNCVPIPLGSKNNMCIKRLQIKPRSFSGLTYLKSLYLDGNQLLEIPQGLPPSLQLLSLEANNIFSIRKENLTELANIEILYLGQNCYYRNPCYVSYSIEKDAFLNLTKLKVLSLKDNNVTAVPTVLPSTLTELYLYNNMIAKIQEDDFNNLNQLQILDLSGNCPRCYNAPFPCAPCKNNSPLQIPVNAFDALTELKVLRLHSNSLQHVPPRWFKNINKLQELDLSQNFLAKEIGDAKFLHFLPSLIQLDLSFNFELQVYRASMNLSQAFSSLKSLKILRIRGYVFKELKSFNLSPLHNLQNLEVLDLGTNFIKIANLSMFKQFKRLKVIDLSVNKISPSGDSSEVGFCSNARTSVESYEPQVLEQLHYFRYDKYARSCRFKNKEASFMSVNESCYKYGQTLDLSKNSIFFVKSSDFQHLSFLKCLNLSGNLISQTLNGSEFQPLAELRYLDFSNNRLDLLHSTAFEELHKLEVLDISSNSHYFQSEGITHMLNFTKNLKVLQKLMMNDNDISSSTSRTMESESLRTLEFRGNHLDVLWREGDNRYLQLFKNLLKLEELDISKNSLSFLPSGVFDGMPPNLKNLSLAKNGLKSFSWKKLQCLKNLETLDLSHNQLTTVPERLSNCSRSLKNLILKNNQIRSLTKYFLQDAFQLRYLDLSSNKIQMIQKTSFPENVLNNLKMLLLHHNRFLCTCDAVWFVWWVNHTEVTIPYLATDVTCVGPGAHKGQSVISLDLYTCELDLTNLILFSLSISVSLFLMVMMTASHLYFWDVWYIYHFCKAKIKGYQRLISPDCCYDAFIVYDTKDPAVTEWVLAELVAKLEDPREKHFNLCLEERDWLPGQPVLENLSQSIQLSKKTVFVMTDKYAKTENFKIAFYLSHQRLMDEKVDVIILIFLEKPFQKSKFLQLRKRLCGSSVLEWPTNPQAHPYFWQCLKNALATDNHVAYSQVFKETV

[10] = test system: Splenocyte; experiment: Inhibition of CpG-induced IL-6 production in C57BL/6 mouse splenocytes after 24 hrs by ELISA; assay type: functional, cell-based; conditions: C57BL/6, Splenocyte

| Compound | pIC50 [1] | other results |
| --- | --- | --- |
| CN1CCN(c2ccc(-c3ncc4c(n3)N(CCCCN3CCOCC3)CC4)cc2)CC1 | 7.96 |  |
| Cc1nc(-c2ccc(N3CCN(C)CC3)cc2)nc2c1CCN2CCCN1CCOCC1 | 7.80 | Stability [2]: < 10 µL/min/mg |
| CN1CCN(c2ccc(-c3ncc4c(n3)N(CCCN3CCCC3)CC4)cc2)CC1 | 8.41 | Stability [2]: 71 µL/min/mg |
| Cc1nc(-c2ccc(N3CCN(C)CC3)cc2)nc2c1CCN2CCCN1CCCC1 | 8.46 | Stability [2]: 35 µL/min/mg |
| CN1CCN(c2ccc(-c3ncc4c(n3)N(CCCN3CCOCC3)CC4)cc2)C(=O)C1 | < 6.00 |  |
| CN1CCN(c2cccc(-c3ncc4c(n3)N(CCCN3CCOCC3)CC4)c2)CC1 | 7.25 |  |
| Cc1nc(-c2ccc(N3CCN(C)CC3)cc2)nc(NCCN2CCOCC2)c1C | 7.46 | Stability [2]: 69 µL/min/mg |
| Cc1nc(-c2ccc(N3CCN(C)CC3)cc2)nc2c1CCN2CCN1CCCC1 | 7.96 |  |
| CN1CCN(c2ccc(-c3nc4c(c(NCCN5CCOCC5)n3)COCC4)cc2)CC1 | 6.72 |  |
| OCCN1CCN(c2ccc(-c3ncc4c(n3)N(CCCN3CCOCC3)CC4)cc2)CC1 | 7.89 | inhibition [3]: Dose-dependent effect; Ratio IC50 [4]: 75; pIC50 [5]: < 5.00; pIC50 [6]: 6.61; ED50 [7]: 0.8 mg/kg; solubility [8]: > 10000 µg/mL; pIC50 [9]: 6.01; pIC50 [10]: 7.13 |
| COc1nc(-c2ccc(N3CCN(C)CC3)cc2)nc2c1CCN2CCCN1CCCC1 | 6.92 |  |
| COc1cc2nc(-c3ccc(N4CCN(C)CC4)cc3)nc(NCCN3CCOCC3)c2cc1OC | 8.34 | solubility [8]: 120 µg/mL (≈ 244 µM) |
| COCCN1CCN(c2ccc(-c3ncc4c(n3)N(CCCN3CCOCC3)CC4)cc2)CC1 | 7.55 |  |
| CN1CCN(c2ccccc2-c2ncc3c(n2)N(CCCN2CCOCC2)CC3)CC1 | 7.25 |  |
| CN1CCN(c2ccc(-c3nc(N(C)C)c4c(n3)N(CCCN3CCCC3)CC4)cc2)CC1 | 7.14 |  |
| CN1CCN(c2ccc(-c3ncc4c(n3)N(CCN3CCOCC3)CC4)cc2)CC1 | 7.14 |  |
| CN1CCN(c2ccc(-c3nc4c(c(NCCN5CCOCC5)n3)CCCC4)cc2)CC1 | 7.57 | Ratio IC50 [4]: 71 |
| CN1CCN(c2ccc(-c3nc(Cl)c4c(n3)N(CCCN3CCCC3)CC4)cc2)CC1 | 7.08 |  |
| CN1CCN(c2ccc(-c3nccc(NCCN4CCOCC4)n3)cc2)CC1 | 6.72 |  |
| Cc1cnc(-c2ccc(N3CCN(C)CC3)cc2)nc1NCCN1CCOCC1 | 6.92 |  |
| Cc1nc(-c2ccc(N3CCN(C)CC3)cc2)nc2c1CCN2CCN1CCOCC1 | 7.70 | Ratio IC50 [4]: 93; Stability [2]: < 10 µL/min/mg |
| CN1CCN(c2ccc(-c3ncc4c(n3)N(CCCN3CCOCC3)CC4)cc2)CC1 | 8.07 | Ratio IC50 [4]: > 50; solubility [8]: 1100 µg/mL (≈ 2600 µM) |
